# Source: patent US7893077B2, “Bisaryl-sulfonamides” (Amgen Inc., priority 2004, dated 2011)
# Target: T1, PPARγ (Homo sapiens, UniProt P37231)
# T1 construct: made in house
# T1 sequence (P37231 1-505): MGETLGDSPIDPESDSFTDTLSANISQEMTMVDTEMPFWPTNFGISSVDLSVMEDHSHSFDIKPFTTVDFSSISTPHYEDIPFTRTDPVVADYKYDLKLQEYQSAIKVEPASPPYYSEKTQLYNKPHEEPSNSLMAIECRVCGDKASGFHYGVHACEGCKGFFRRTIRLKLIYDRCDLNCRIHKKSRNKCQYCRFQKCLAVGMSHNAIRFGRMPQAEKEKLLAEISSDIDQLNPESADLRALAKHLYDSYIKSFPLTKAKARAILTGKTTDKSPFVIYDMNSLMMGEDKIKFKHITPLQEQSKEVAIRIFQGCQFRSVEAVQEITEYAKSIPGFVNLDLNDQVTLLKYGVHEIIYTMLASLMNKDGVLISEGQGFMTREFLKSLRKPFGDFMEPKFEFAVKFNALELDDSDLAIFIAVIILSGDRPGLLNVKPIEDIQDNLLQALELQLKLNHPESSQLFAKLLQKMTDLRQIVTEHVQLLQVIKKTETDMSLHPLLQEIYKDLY
# Experiment: PPARγ ligand binding assay utilizing [3H]-BRL 49653 as the radioligand (filtration)
# Conditions: concentration required to reduce by 50% the specific binding of [3H]-BRL 49653
# Text: The compounds of the present invention can be evaluated for modulation of the PPARγ receptor using assays such as those described in Jiang, et al., Nature 391:82-86 (1998), Ricote, et al., Nature 391:79-82 (1998) and Lehmann, et al., J. Biol. Chem. 270(12): 12953-12956 (1995). Alternatively, the compounds can be evaluated for their ability to displace radiolabeled BRL 49653 from a PPARγ-GST fusion protein as follows:
# PPARγ-GST fusion protein (prepared according to standard procedures), [^3H]-BRL 49653 having 50 Ci/mmol specific activity, Polyfiltronics Unifilter 350 filtration plate and glutathione-Sepharose® beads (from Pharmacia: washed twice with 10× binding buffer in which BSA and DTI can be left out).
# Binding buffer (10 mM Tris-HCl, pH 8.0, 50 mM KCl, 10 mM DTT, 0.02% BSA and 0.0 1% NP-40) is added in 80-μL amounts to the wells of the filtration plate. The test compound is then added in 10 μL of DMSO. The PPARγ-GST fusion protein and radiolabeled BRL compound are premixed in binding buffer containing 10 mM DTT and added in 10-μL amounts to the wells of the plate to provide final concentrations of 1 µg/well of PPARγ-GST fusion protein and 10 nM [^3H]-BRL 49653 compound. The plate is incubated for 15 min. Glutathione-agarose bead is added in 50 μL of binding buffer, and the plate is vigorously shaken for one hour. The plate is washed four times with 200 μL/well of binding buffer (without BSA and DTT). The bottom of the plate is sealed and 200 μL/well of scintillation cocktail is added. The top of the plate is then sealed and the radioactivity is determined.
# IC50 values are defined as the concentration of test compounds required to reduce by 50% the specific binding of [^3H]-BRL 49653 and are represented by (+)<30 μM; (++)<10 μM; (+++)<1 μM.
row,Structure (SMILES),IC50 [nM]
1,"Cc1cc(NS(=O)(=O)c2ccc(Cl)cc2Cl)ncc1Sc1ccc(S(=O)(=O)N2CCCCC2)cc1 [Compound 63, 2,4-Dichloro-N-{4-methyl-5-[4-(piperidine-1-sulfonyl) -phenylsulfanyl]-pyridin-2-yl}-benzenesulfonamide]",< 1000
2,"O=S(=O)(Nc1ccc(Sc2ccc(S(=O)(=O)N3CCCCC3)cc2)cn1)c1ccc(C(F)(F)F)cc1Cl [Compound 69, 2-Chloro-N-{5-[4-(piperidine-1-sulfonyl)-phenylsulfanyl]-pyridin-2-yl}-4-trifluoromethyl-benzenesulfonamide]",< 1000
3,"O=C(c1nc(NS(=O)(=O)c2ccc(Cl)cc2Cl)ccc1Sc1ccc(S(=O)(=O)N2CCCCC2)cc1)C1CC1 [Compound 82, 2,4-Dichloro-N-{6-cyclopropanecarbonyl-5-[4-(piperidine-1-sulfonyl)-phenylsulfanyl]-pyridin-2-yl}-benzenesulfonamide]",< 1000
4,"CNc1nc(NS(=O)(=O)c2ccc(Cl)cc2Cl)ncc1Sc1ccc2ccccc2c1 [Compound 25, 2,4-Dichloro-N-[4-methylamino-5-(naphthalen-2-ylsulfanyl) -pyrimidin-2-yl]-benzenesulfonamide]",< 30000
5,"CC(C)c1cc(NS(=O)(=O)c2ccc(C(F)(F)F)cc2Cl)nnc1Sc1ccc(S(=O)(=O)N2CCOCC2)cc1 [Compound 135, 3-(2′-chloro-4′-trifluoromethyl)phenylsulfonylamino-5-iso-propyl-6-(4″-N-morpholinesulfonyl)phenylthiopyridazine]",< 10000
6,"Cc1cc(S(=O)(=O)Nc2ccc(Sc3ccc(S(=O)(=O)N4CCCCC4)cc3)cn2)c(Cl)cc1Cl [Compound 67, 2,4-Dichloro-5-methyl-N-{5-[4-(piperidine-1-sulfonyl) -phenylsulfanyl]-pyridin-2-yl}-benzenesulfonamide]",< 1000
7,"CCCNc1nc(NS(=O)(=O)c2ccc(Cl)cc2)ncc1Sc1ccc(S(=O)(=O)N2CCCCC2)cc1 [Compound 22, 4-Chloro-N-{5-[4-(piperidine-1-sulfonyl)-phenylsulfanyl]-4-propylamino-pyrimidin-2-yl}-benzenesulfonamide]",< 1000
8,"Cc1cc(NS(=O)(=O)c2ccc(C(F)(F)F)cc2Cl)nnc1Sc1ccc(S(=O)(=O)N2CCCCC2)cc1 [Compound 136, 2-Chloro-N-{5-methyl-6-[4-(piperidine-1-sulfonyl) -phenylsulfanyl]-pyridazin-3-yl}-4-trifluoromethyl-benzenesulfonamide]",< 1000
9,"CCCCCc1nc(NS(=O)(=O)c2ccc(Cl)cc2Cl)ncc1Sc1ccc(S(=O)(=O)N2CCCCC2)cc1 [Compound 47, 2,4-Dichloro-N-{4-pentyl-5-[4-(piperidine-1-sulfonyl) -phenylsulfanyl]-pyrimidin-2-yl}-benzenesulfonamide]",< 1000
10,"Cc1nc(NS(=O)(=O)c2ccc(C(F)(F)F)cc2Cl)ncc1Oc1ccc(S(=O)(=O)N2CCOCC2)cc1 [Compound 55, 2-Chloro-N-{4-methyl-5-[4-(morpholine-4-sulfonyl) -phenoxy]-pyrimidin-2-yl}-4-trifluoromethyl-benzenesulfonamide]",< 10000
11,"CCCC(=O)c1nc(NS(=O)(=O)c2ccc(C(F)(F)F)cc2Cl)ccc1Sc1ccc(S(=O)(=O)N(CC)CC)cc1 [Compound 99, N-[6-Butyryl-5-(4-diethylsulfamoyl-phenylsulfanyl)-pyridin-2-yl]-2-chloro-4-trifluoromethyl-benzenesulfonamide]",< 1000
12,"CCCC(=O)c1nc(NS(=O)(=O)c2ccc(Cl)cc2Cl)ccc1Sc1ccc(S(=O)(=O)N2CCCC2)cc1 [Compound 94, N-{6-Butyryl-5-[4-(pyrrolidine-1-sulfonyl)-phenylsulfanyl]-pyridin-2-yl}-2,4-dichloro-benzenesulfonamide]",< 1000

# Next, values leading:
row,IC50 [nM],Structure (SMILES)
1,< 10000,"Cc1nc(NS(=O)(=O)c2ccc(Cl)cc2Cl)ncc1Sc1ccc(S(=O)(=O)N2CCOCC2)cc1 [Compound 52, 2,4-Dichloro-N-{4-methyl-5-[4-(morpholine-4-sulfonyl) -phenylsulfanyl]-pyrimidin-2-yl}-benzenesulfonamide]"
2,< 1000,"CCCCc1cc(NS(=O)(=O)c2ccc(Cl)cc2Cl)nnc1Sc1ccc(S(=O)(=O)N2CCOCC2)cc1 [Compound 131, 3-(2′,4′-dichloro)phenylsulfonylamino-5-n-butyl-6-(4″-N-morpholinesulfonyl)phenylthiopyridazine]"
3,< 1000,"CCCNc1nc(NS(=O)(=O)c2ccc(Cl)cc2Cl)ncc1Sc1ccc(S(=O)(=O)N2CCCCC2)cc1 [Compound 12, 2,4-Dichloro-N-{5-[4-(piperidine-1-sulfonyl)-phenylsulfanyl]-4-propylamino-pyrimidin-2-yl}-benzenesulfonamide]"
4,< 1000,"O=S(=O)(Nc1ccc(Sc2ccc(S(=O)(=O)N3CCCCC3)cc2)cn1)c1ccc(Cl)cc1Cl [Compound 68, 2,4-Dichloro-N-{5-[4-(piperidine-1-sulfonyl)-phenylsulfanyl]-pyridin-2-yl}-benzenesulfonamide]"
5,< 1000,"CCCC(=O)c1nc(NS(=O)(=O)c2ccc(C(F)(F)F)cc2Cl)ccc1Sc1ccc(S(=O)(=O)C2CCCC2)cc1 [Compound 114, N-[6-Butyryl-5-(4-cyclopentanesulfonyl-phenylsulfanyl)-pyridin-2-yl]-2-chloro-4-trifluoromethyl-benzenesulfonamide]"
6,< 1000,"Cc1cc(NS(=O)(=O)c2ccc(C(F)(F)F)cc2Cl)ncc1Sc1ccc(S(=O)(=O)N2CCCCC2)cc1 [Compound 64, 2-Chloro-N-{4-methyl-5-[4-(piperidine-1-sulfonyl) -phenylsulfanyl]-pyridin-2-yl}-4-trifluoromethyl-benzenesulfonamide]"
7,< 10000,"Cc1nc(NS(=O)(=O)c2ccc(Cl)cc2)ncc1Sc1ccc(S(=O)(=O)N2CCCCC2)cc1 [Compound 51, 4-Chloro-N-{4-methyl-5-[4-(piperidine-1-sulfonyl) -phenylsulfanyl]-pyrimidin-2-yl}-benzenesulfonamide]"
8,< 1000,"COC(=O)c1nc(NS(=O)(=O)c2ccc(Cl)cc2Cl)ccc1Sc1ccc(S(=O)(=O)N2CCCCC2)cc1 [Compound 70, 6-(2,4-Dichloro-benzenesulfonylamino)-3-[4-(piperidine-1-sulfonyl)-phenylsulfanyl]-pyridine-2-carboxylic acid methyl ester]"
9,< 30000,"CN(C)c1nc(NS(=O)(=O)c2ccc(Cl)cc2Cl)ncc1Sc1ccc2ccccc2c1 [Compound 26, 2,4-Dichloro-N-[4-dimethylamino-5-(naphthalen-2-ylsulfanyl) -pyrimidin-2-yl]-benzenesulfonamide]"
10,< 1000,"O=C(c1nc(NS(=O)(=O)c2ccc(Cl)cc2Cl)ccc1Sc1ccc(S(=O)(=O)N2CCCC2)cc1)C1CC1 [Compound 95, 2,4-Dichloro-N-{6-cyclopropanecarbonyl-5-[4-(pyrrolidine-1-sulfonyl)-phenylsulfanyl]-pyridin-2-yl}-benzenesulfonamide]"
11,< 1000,"CCCOc1nc(NS(=O)(=O)c2ccc(Cl)cc2Cl)ncc1Sc1ccc(S(=O)(=O)N2CCCCC2)cc1 [Compound 28, 2,4-Dichloro-N-{5-[4-(piperidine-1-sulfonyl)-phenylsulfanyl]-4-propoxy-pyrimidin-2-yl}-benzenesulfonamide]"
12,< 1000,"CCCC(=O)c1nc(NS(=O)(=O)c2ccc(Cl)cc2Cl)ccc1Sc1ccc(S(=O)(=O)N2CCCCC2)cc1 [Compound 73, N-{6-Butyryl-5-[4-(piperidine-1-sulfonyl)-phenylsulfanyl]-pyridin-2-yl}-2,4-dichloro-benzenesulfonamide]"
13,< 1000,"CCCCc1nc(NS(=O)(=O)c2ccc(Cl)cc2Cl)ncc1Sc1ccc(S(=O)(=O)N2CCCCC2)cc1 [Compound 43, N-{4-Butyl-5-[4-(piperidine-1-sulfonyl)-phenylsulfanyl]-pyrimidin-2-yl}-2,4-dichloro-benzenesulfonamide]"
14,< 1000,"CCC(=O)c1nc(NS(=O)(=O)c2ccc(Cl)cc2Cl)ccc1Sc1ccc(S(=O)(=O)N2CCCC2)cc1 [Compound 96, 2,4-Dichloro-N-{6-propionyl-5-[4-(pyrrolidine-1-sulfonyl) -phenylsulfanyl]-pyridin-2-yl}-benzenesulfonamide]"
